From ChEMBL document CHEMBL5036332, “Glucose-Lipopeptide Conjugates Reveal the Role of Glucose Modification Position in Complexation and the Potential of Malignant Melanoma Therapy” (J Med Chem, 2021)
*1 amine or outer side, *2 acyl side, *3 side chain or, on linkers, in order; H or OH if unused. Where a SMILES comes first, the peptide text is derived from it. Side-chain parts run from the residue outwards. The star is where a group is joined. NH(CH2)3O(βDGlc) = OC[C@H]1O[C@@H](OCCCN*)[C@H](O)[C@@H](O)[C@@H]1O; Glutaryl = O=C(CCCC(=O)[*:2])[*:1]; Lauroyl = CCCCCCCCCCCC(=O)*

How the values were obtained:
[1] = test system: MCF7; experiment: Cytotoxicity against human MCF7 cells assessed as cell viability measured after 24 hrs by CCK-8 assay; format: functional, cell-based; conditions: MCF7, 24 h
[2] = test system: MDA-MB-231; experiment: Cytotoxicity against human MDA-MB-231 cells assessed as cell viability measured after 24 hrs by CCK-8 assay; format: functional, cell-based; conditions: MDA-MB-231, 24 h
[3] = test system: MX1; experiment: Cytotoxicity against human MX1 cells assessed as cell viability measured after 24 hrs by CCK-8 assay; format: functional, cell-based; conditions: MX1, 24 h
[4] = species: Homo sapiens; experiment: Binding affinity to membrane (unknown origin) assessed as binding free energy
[5] = molecular target: T1, Solute carrier family 2, facilitated glucose transporter member 1 (Homo sapiens) (UniProt P11166); experiment: Binding affinity to GLUT1 (unknown origin) assessed as binding free energy
T1 sequence (whole entry): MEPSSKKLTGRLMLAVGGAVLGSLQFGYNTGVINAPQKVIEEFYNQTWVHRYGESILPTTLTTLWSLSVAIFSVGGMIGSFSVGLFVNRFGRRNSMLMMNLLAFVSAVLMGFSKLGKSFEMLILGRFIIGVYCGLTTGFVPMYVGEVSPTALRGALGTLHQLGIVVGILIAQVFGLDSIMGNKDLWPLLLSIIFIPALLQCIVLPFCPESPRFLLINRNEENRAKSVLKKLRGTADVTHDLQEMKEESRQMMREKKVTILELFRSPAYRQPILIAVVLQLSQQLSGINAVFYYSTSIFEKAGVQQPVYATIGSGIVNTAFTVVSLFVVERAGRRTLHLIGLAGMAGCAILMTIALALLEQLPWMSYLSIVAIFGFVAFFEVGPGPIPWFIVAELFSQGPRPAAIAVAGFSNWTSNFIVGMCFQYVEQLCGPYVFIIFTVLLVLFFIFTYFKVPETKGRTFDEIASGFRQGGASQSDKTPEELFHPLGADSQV

[6] = molecular target: T1, Solute carrier family 2, facilitated glucose transporter member 1 (Homo sapiens); experiment: Binding affinity to GLUT1 (unknown origin) membrane assessed as free energy
[7] = test system: B16-F10; experiment: Cytotoxicity against mouse B16-F10 cells assessed as cell viability after 24 hrs by CCK-8 assay; format: functional, cell-based; conditions: B16-F10, 24 h

Compound	deltaG [4]	deltaG [5]	deltaG [6]	IC50 [1]	IC50 [2]	IC50 [3]	IC50 [7]
CCCCCCCCCCCCCC(=O)N[C@@H](CCCNC(=N)N)C(=O)N[C@@H](Cc1c[nH]c2ccccc12)C(=O)N[C@@H](CCCCN)C(=O)N[C@H](C(=O)N[C@@H](Cc1ccccc1)C(=O)N[C@@H](CCCCN)C(=O)N[C@@H](CCCCN)C(=O)N[C@H](C(=O)N[C@@H](CCC(=O)O)C(=O)N[C@@H](CCCCN)C(=O)N[C@H](C(=O)NCC(=O)N[C@@H](CCC(N)=O)C(=O)N[C@@H](CC(N)=O)C(=O)N[C@H](C(=O)N[C@@H](CCCNC(=N)N)C(=O)N[C@@H](CC(=O)O)C(=O)NCC(=O)N[C@H](C(=O)N[C@H](C(=O)N[C@@H](CCCCN)C(=O)N[C@@H](C)C(=O)NCC(=O)N1CCC[C@H]1C(=O)N[C@@H](C)C(=O)N[C@H](C(=O)N[C@@H](C)C(=O)N[C@H](C(=O)N[C@H](C(=O)NCC(=O)N[C@@H](CCC(N)=O)C(=O)N[C@@H](C)C(=O)N[C@@H](C)C(=O)N[C@H](C(=O)N[C@H](C(N)=O)[C@@H](C)CC)[C@@H](C)O)C(C)C)C(C)C)C(C)C)C(C)C)[C@@H](C)CC)[C@@H](C)CC)C(C)C)[C@@H](C)CC)[C@@H](C)CC (HELM PEPTIDE1{[CCCCCCCCCCCCCC(=O)[*:2]].R.W.K.I.F.K.K.I.E.K.V.G.Q.N.I.R.D.G.I.V.K.A.G.P.A.V.A.V.V.G.Q.A.A.T.I.[am]}$$$$V2.0)				< 8 µM	< 8 µM	< 8 µM	
CCCCCCCCCCCC(=O)N[C@@H](CCCNC(=N)N)C(=O)NCC(=O)N[C@@H](Cc1c[nH]c2ccccc12)C(=O)N[C@@H](Cc1ccccc1)C(=O)N[C@@H](CCCNC(=N)N)C(=O)N[C@@H](C)C(=O)N[C@@H](CCSC)C(=O)N[C@@H](CCCCNC(=O)CCCC(=O)NCCCO[C@@H]1O[C@H](CO)[C@@H](O)[C@H](O)[C@H]1O)C(=O)N[C@@H](CO)C(=O)N[C@H](C(=O)N[C@@H](C)C(=O)N[C@@H](CCCNC(=N)N)C(=O)N[C@@H](Cc1ccccc1)C(=O)N[C@H](C(=O)N[C@@H](C)C(=O)N[C@@H](CCCNC(=N)N)C(=O)N[C@@H](CCC(=O)O)C(=O)N[C@@H](CCCNC(=N)N)C(=O)N[C@@H](CC(C)C)C(=O)N[C@@H](CCCNC(=N)N)C(=O)N[C@@H](CCC(=O)O)C(=O)N[C@@H](Cc1cnc[nH]1)C(=O)N[C@@H](CC(C)C)C(N)=O)[C@@H](C)CC)[C@@H](C)CC (Lauroyl-RGWFRAMK([Glutaryl-NH(CH2)3O(βDGlc)])SIARFIARERLREHL-NH2)	-27.5 kcal/mol	-58.5 kcal/mol	-87.4 kcal/mol				4.1 µM
CCCCCCCCCCCCCCCC(=O)N[C@@H](CCCNC(=N)N)C(=O)N[C@@H](Cc1c[nH]c2ccccc12)C(=O)N[C@@H](CCCCN)C(=O)N[C@H](C(=O)N[C@@H](Cc1ccccc1)C(=O)N[C@@H](CCCCN)C(=O)N[C@@H](CCCCN)C(=O)N[C@H](C(=O)N[C@@H](CCC(=O)O)C(=O)N[C@@H](CCCCN)C(=O)N[C@H](C(=O)NCC(=O)N[C@@H](CCC(N)=O)C(=O)N[C@@H](CC(N)=O)C(=O)N[C@H](C(=O)N[C@@H](CCCNC(=N)N)C(=O)N[C@@H](CC(=O)O)C(=O)NCC(=O)N[C@H](C(=O)N[C@H](C(=O)N[C@@H](CCCCN)C(=O)N[C@@H](C)C(=O)NCC(=O)N1CCC[C@H]1C(=O)N[C@@H](C)C(=O)N[C@H](C(=O)N[C@@H](C)C(=O)N[C@H](C(=O)N[C@H](C(=O)NCC(=O)N[C@@H](CCC(N)=O)C(=O)N[C@@H](C)C(=O)N[C@@H](C)C(=O)N[C@H](C(=O)N[C@H](C(N)=O)[C@@H](C)CC)[C@@H](C)O)C(C)C)C(C)C)C(C)C)C(C)C)[C@@H](C)CC)[C@@H](C)CC)C(C)C)[C@@H](C)CC)[C@@H](C)CC (HELM PEPTIDE1{[CCCCCCCCCCCCCCCC(=O)[*:2]].R.W.K.I.F.K.K.I.E.K.V.G.Q.N.I.R.D.G.I.V.K.A.G.P.A.V.A.V.V.G.Q.A.A.T.I.[am]}$$$$V2.0)				< 8 µM	< 8 µM	< 8 µM	
CCCCCCCCCCCC(=O)N[C@@H](CCCNC(=N)N)C(=O)NCC(=O)N[C@@H](Cc1c[nH]c2ccccc12)C(=O)N[C@@H](Cc1ccccc1)C(=O)N[C@@H](CCCNC(=N)N)C(=O)N[C@@H](C)C(=O)N[C@@H](CCSC)C(=O)N[C@@H](CCCNC(=N)N)C(=O)N[C@@H](CO)C(=O)N[C@H](C(=O)N[C@@H](C)C(=O)N[C@@H](CCCNC(=N)N)C(=O)N[C@@H](Cc1ccccc1)C(=O)N[C@@H](CC(C)C)C(=O)N[C@@H](C)C(=O)N[C@@H](CCCCNC(=O)CCCC(=O)NCCCO[C@@H]1O[C@H](CO)[C@@H](O)[C@H](O)[C@H]1O)C(=O)N[C@@H](CCC(=O)O)C(=O)N[C@@H](CCCNC(=N)N)C(=O)N[C@@H](CC(C)C)C(=O)N[C@@H](CCCNC(=N)N)C(=O)N[C@@H](CCC(=O)O)C(=O)N[C@@H](Cc1cnc[nH]1)C(=O)N[C@@H](CC(C)C)C(N)=O)[C@@H](C)CC (Lauroyl-RGWFRAMRSIARFLAK([Glutaryl-NH(CH2)3O(βDGlc)])ERLREHL-NH2)	-87.9 kcal/mol	-61 kcal/mol	-79.9 kcal/mol				3.8 µM
CCCCCCCCCCCC(=O)N[C@@H](CCCNC(=N)N)C(=O)NCC(=O)N[C@@H](Cc1c[nH]c2ccccc12)C(=O)N[C@@H](Cc1ccccc1)C(=O)N[C@@H](CCCCNC(=O)CCCC(=O)NCCCO[C@@H]1O[C@H](CO)[C@@H](O)[C@H](O)[C@H]1O)C(=O)N[C@@H](C)C(=O)N[C@@H](CCSC)C(=O)N[C@@H](CCCNC(=N)N)C(=O)N[C@@H](CO)C(=O)N[C@H](C(=O)N[C@@H](C)C(=O)N[C@@H](CCCNC(=N)N)C(=O)N[C@@H](Cc1ccccc1)C(=O)N[C@H](C(=O)N[C@@H](C)C(=O)N[C@@H](CCCNC(=N)N)C(=O)N[C@@H](CCC(=O)O)C(=O)N[C@@H](CCCNC(=N)N)C(=O)N[C@@H](CC(C)C)C(=O)N[C@@H](CCCNC(=N)N)C(=O)N[C@@H](CCC(=O)O)C(=O)N[C@@H](Cc1cnc[nH]1)C(=O)N[C@@H](CC(C)C)C(N)=O)[C@@H](C)CC)[C@@H](C)CC (Lauroyl-RGWFK([Glutaryl-NH(CH2)3O(βDGlc)])AMRSIARFIARERLREHL-NH2)	-63.6 kcal/mol	-64.3 kcal/mol	-64.1 kcal/mol				5.3 µM
H-RWKIFKKIEKVGQNIRDGIVKAGPAVAVVGQAATI-NH2				< 8 µM	< 8 µM	< 8 µM	

Continued, in another order:

deltaG [4]	deltaG [5]	deltaG [6]	Compound	IC50 [1]	IC50 [2]	IC50 [3]	IC50 [7]
-61.5 kcal/mol	-61.7 kcal/mol	-73.7 kcal/mol	CCCCCCCCCCCC(=O)N[C@@H](CCCCNC(=O)CCCC(=O)NCCCO[C@@H]1O[C@H](CO)[C@@H](O)[C@H](O)[C@H]1O)C(=O)NCC(=O)N[C@@H](Cc1c[nH]c2ccccc12)C(=O)N[C@@H](Cc1ccccc1)C(=O)N[C@@H](CCCNC(=N)N)C(=O)N[C@@H](C)C(=O)N[C@@H](CCSC)C(=O)N[C@@H](CCCNC(=N)N)C(=O)N[C@@H](CO)C(=O)N[C@H](C(=O)N[C@@H](C)C(=O)N[C@@H](CCCNC(=N)N)C(=O)N[C@@H](Cc1ccccc1)C(=O)N[C@H](C(=O)N[C@@H](C)C(=O)N[C@@H](CCCNC(=N)N)C(=O)N[C@@H](CCC(=O)O)C(=O)N[C@@H](CCCNC(=N)N)C(=O)N[C@@H](CC(C)C)C(=O)N[C@@H](CCCNC(=N)N)C(=O)N[C@@H](CCC(=O)O)C(=O)N[C@@H](Cc1cnc[nH]1)C(=O)N[C@@H](CC(C)C)C(N)=O)[C@@H](C)CC)[C@@H](C)CC (Lauroyl-K([Glutaryl-NH(CH2)3O(βDGlc)])GWFRAMRSIARFIARERLREHL-NH2)				7.2 µM
-65.7 kcal/mol	-77.1 kcal/mol	-123 kcal/mol	CCCCCCCCCCCC(=O)N[C@@H](CCCNC(=N)N)C(=O)NCC(=O)N[C@@H](Cc1c[nH]c2ccccc12)C(=O)N[C@@H](Cc1ccccc1)C(=O)N[C@@H](CCCNC(=N)N)C(=O)N[C@@H](C)C(=O)N[C@@H](CCSC)C(=O)N[C@@H](CCCNC(=N)N)C(=O)N[C@@H](CO)C(=O)N[C@H](C(=O)N[C@@H](C)C(=O)N[C@@H](CCCNC(=N)N)C(=O)N[C@@H](Cc1ccccc1)C(=O)N[C@H](C(=O)N[C@@H](C)C(=O)N[C@@H](CCCNC(=N)N)C(=O)N[C@@H](CCC(=O)O)C(=O)N[C@@H](CCCNC(=N)N)C(=O)N[C@@H](CC(C)C)C(=O)N[C@@H](CCCCNC(=O)CCCC(=O)NCCCO[C@@H]1O[C@H](CO)[C@@H](O)[C@H](O)[C@H]1O)C(=O)N[C@@H](CCC(=O)O)C(=O)N[C@@H](Cc1cnc[nH]1)C(=O)N[C@@H](CC(C)C)C(N)=O)[C@@H](C)CC)[C@@H](C)CC (Lauroyl-RGWFRAMRSIARFIARERLK([Glutaryl-NH(CH2)3O(βDGlc)])EHL-NH2)				3.5 µM
-66.8 kcal/mol	-60.1 kcal/mol	-72.8 kcal/mol	CCCCCCCCCCCC(=O)N[C@@H](CCCNC(=N)N)C(=O)NCC(=O)N[C@@H](Cc1c[nH]c2ccccc12)C(=O)N[C@@H](Cc1ccccc1)C(=O)N[C@@H](CCCNC(=N)N)C(=O)N[C@@H](C)C(=O)N[C@@H](CCSC)C(=O)N[C@@H](CCCNC(=N)N)C(=O)N[C@@H](CO)C(=O)N[C@H](C(=O)N[C@@H](C)C(=O)N[C@@H](CCCNC(=N)N)C(=O)N[C@@H](Cc1ccccc1)C(=O)N[C@H](C(=O)N[C@@H](C)C(=O)N[C@@H](CCCNC(=N)N)C(=O)N[C@@H](CCC(=O)O)C(=O)N[C@@H](CCCCNC(=O)CCCC(=O)NCCCO[C@@H]1O[C@H](CO)[C@@H](O)[C@H](O)[C@H]1O)C(=O)N[C@@H](CC(C)C)C(=O)N[C@@H](CCCNC(=N)N)C(=O)N[C@@H](CCC(=O)O)C(=O)N[C@@H](Cc1cnc[nH]1)C(=O)N[C@@H](CC(C)C)C(N)=O)[C@@H](C)CC)[C@@H](C)CC (Lauroyl-RGWFRAMRSIARFIAREK([Glutaryl-NH(CH2)3O(βDGlc)])LREHL-NH2)				3.3 µM
